Experimental data as given in US20200017496A1 (priority 2017, published 2020).
Where two headings read alike, the source gives them in different places.

Tested on: Proteus mirabilis (PMI) isolates
Test: microbe, parasite or virus in culture
Type: cell-based
Experimental: Method 2: MIC of Compounds Alone and Combined with Antibacterials Against Bacterial Isolates.
Compounds of the present invention were assessed against genotyped bacterial strains (Table 3, 4) alone or in combination with an antibacterial (Table 2). […] Log phase bacterial suspensions were adjusted to a final density of 5·10^5 CFU/mL in cation-adjusted Mueller-Hinton broth (ca-MHB; Becton-Dickinson and Company) and added to each well (98 μL). Microplates were incubated for 16-20 h at 35° C. in ambient air. The MIC of the compounds was defined as the lowest concentration of said compounds that prevented bacterial growth as read by visual inspection. The MIC of ATB at each compound concentration was defined as the lowest concentration of ATB that prevented bacterial growth as read by visual inspection.

[1] = Proteus mirabilis, strain PMI UFR82 (CMY-2), ATB alone, read-out: MIC
[2] = Proteus mirabilis, strain PMI UFR120 (TEM-1, SHV-11, CTX-M-14), ATB alone, read-out: MIC
[3] = Proteus mirabilis, strain PMI UFR121 (TEM-1, TEM-52), ATB alone, read-out: MIC
[4] = Proteus mirabilis, strain PMI UFR122 (TEM-1, CTX-M-15), ATB alone, read-out: MIC
[5] = Proteus mirabilis, strain PMI UFR123 (CTX-M-1), ATB alone, read-out: MIC
[6] = Proteus mirabilis, strain PMI UFR124 (CTX-M-2), ATB alone, read-out: MIC
[7] = Proteus mirabilis, strain PMI UFR125 (CTX-M-71), ATB alone, read-out: MIC
[8] = Proteus mirabilis, strain PMI UFR130 (CMY-2), ATB alone, read-out: MIC

Structure (SMILES)	MIC ATB in combination (PMI UFR82, AF1 @ 4 μg/mL)	MIC ATB in combination (PMI UFR120, AF1 @ 4 μg/mL)	MIC ATB in combination (PMI UFR121, AF1 @ 4 μg/mL)	MIC ATB in combination (PMI UFR122, AF1 @ 4 μg/mL)	MIC ATB in combination (PMI UFR123, AF1 @ 4 μg/mL)	MIC ATB in combination (PMI UFR124, AF1 @ 4 μg/mL)	MIC ATB in combination (PMI UFR125, AF1 @ 4 μg/mL)	MIC ATB in combination (PMI UFR126, AF1 @ 4 μg/mL)	MIC ATB in combination (PMI UFR127, AF1 @ 4 μg/mL)	MIC ATB in combination (PMI UFR129, AF1 @ 4 μg/mL)	MIC ATB in combination (PMI UFR130, AF1 @ 4 μg/mL)	MIC ATB in combination (PMI UFR237, AF1 @ 4 μg/mL)	MIC [1]	MIC [2]	MIC [3]	MIC [4]	MIC [5]	MIC [6]	MIC [7]	MIC [8]	other results
CC1(C)S[C@@H]2[C@H](NC(=O)[C@H](N)c3ccc(O)cc3)C(=O)N2[C@H]1C(=O)O [AMX, Amoxicillin]	8 µg/mL	<=0.25 μg/mL	<=0.25 μg/mL	<=0.25 μg/mL	<=0.25 μg/mL	<=0.25 μg/mL	<=0.25 μg/mL	4 µg/mL	4 µg/mL	8 µg/mL	8 µg/mL	16 µg/mL	256 µg/mL	–	–	–	–	–	–	–	MIC: 128 µg/mL; MIC (Proteus mirabilis): > 128 µg/mL; MIC (Proteus mirabilis, strain PMI UFR120 (TEM-1, SHV-11, CTX-M-14), CLA @ 4 μg/ml+ ATB, read-out: MIC): 8 µg/mL; MIC (Proteus mirabilis, strain PMI UFR121 (TEM-1, TEM-52), CLA @ 4 μg/ml+ ATB, read-out: MIC): 4 µg/mL; MIC (Proteus mirabilis, strain PMI UFR122 (TEM-1, CTX-M-15), CLA @ 4 μg/ml+ ATB, read-out: MIC): 8 µg/mL; MIC (Proteus mirabilis, strain PMI UFR123 (CTX-M-1), CLA @ 4 μg/ml+ ATB, read-out: MIC): 16 µg/mL; MIC (Proteus mirabilis, strain PMI UFR125 (CTX-M-71), CLA @ 4 μg/ml+ ATB, read-out: MIC): 4 µg/mL; MIC (Proteus mirabilis, strain PMI UFR126 (TEM-2, PER-1), CLA @ 4 μg/ml+ ATB, read-out: MIC): 16 µg/mL; MIC (Proteus mirabilis, strain PMI UFR127 (VEB-1), CLA @ 4 μg/ml+ ATB, read-out: MIC): 32 µg/mL; MIC (Proteus mirabilis, strain PMI UFR129 (TEM-1, VEB-6), CLA @ 4 μg/ml+ ATB, read-out: MIC): 2 µg/mL; MIC (Proteus mirabilis, strain PMI UFR237 (VEB-6), CLA @ 4 μg/ml+ ATB, read-out: MIC): 4 µg/mL
CC(C)(O/N=C(\C(=O)N[C@@H]1C(=O)N2C(C(=O)[O-])=C(C[n+]3ccccc3)CS[C@H]12)c1csc(N)n1)C(=O)O [CAZ, Ceftazidime]	<=0.25 μg/mL	<=0.25 μg/mL	<=0.25 μg/mL	<=0.25 μg/mL	<=0.25 μg/mL	<=0.25 μg/mL	<=0.25 μg/mL	<=0.25 μg/mL	<=0.25 μg/mL	<=0.25 μg/mL	<=0.25 μg/mL	0.5 µg/mL	4 µg/mL	≤ 0.25 µg/mL	16 µg/mL	1 µg/mL	2 µg/mL	2 µg/mL	2 µg/mL	4 µg/mL	MIC ATB in combination (PMI UFR82, AF1 @ 8 μg/mL): <=0.25 μg/mL; MIC ATB in combination (PMI UFR120, AF1 @ 8 μg/mL): <=0.25 μg/mL; MIC ATB in combination (PMI UFR121, AF1 @ 8 μg/mL): <=0.25 μg/mL; MIC ATB in combination (PMI UFR122, AF1 @ 8 μg/mL): <=0.25 μg/mL; MIC ATB in combination (PMI UFR123, AF1 @ 8 μg/mL): <=0.25 μg/mL; MIC ATB in combination (PMI UFR124, AF1 @ 8 μg/mL): <=0.25 μg/mL; MIC ATB in combination (PMI UFR125, AF1 @ 8 μg/mL): <=0.25 μg/mL; MIC ATB in combination (PMI UFR126, AF1 @ 8 μg/mL): <=0.25 μg/mL; MIC ATB in combination (PMI UFR127, AF1 @ 8 μg/mL): <=0.25 μg/mL; MIC ATB in combination (PMI UFR129, AF1 @ 8 μg/mL): <=0.25 μg/mL; MIC ATB in combination (PMI UFR130, AF1 @ 8 μg/mL): <=0.25 μg/mL; MIC ATB in combination (PMI UFR237, AF1 @ 8 μg/mL): <=0.25 μg/mL
C=CC1=C(C(=O)O)N2C(=O)[C@@H](NC(=O)/C(=N\O)c3csc(N)n3)[C@H]2SC1 [CDR, Cefdinir]	0.5 µg/mL	<=0.25 μg/mL	<=0.25 μg/mL	<=0.25 μg/mL	<=0.25 μg/mL	<=0.25 μg/mL	<=0.25 μg/mL	<=0.25 μg/mL	<=0.25 μg/mL	<=0.25 μg/mL	<=0.25 μg/mL	<=0.25 μg/mL	–	–	–	–	–	–	–	–	–
NC(=O)[C@@H]1CC[C@@H]2CN1C(=O)N2OC(F)(F)C(=O)[O-].[Na+] [EA1]	–	–	–	–	–	–	–	–	–	–	–	–	–	–	–	–	–	–	–	–	MIC (PMI UFR82, alone): >32 µg/mL; MIC (PMI UFR120, alone): >32 µg/mL; MIC (PMI UFR121, alone): >32 µg/mL; MIC (PMI UFR122, alone): >32 µg/mL; MIC (PMI UFR123, alone): >32 µg/mL; MIC (PMI UFR124, alone): >32 µg/mL; MIC (PMI UFR125, alone): >32 µg/mL; MIC (PMI UFR126, alone): >32 µg/mL; MIC (PMI UFR127, alone): >32 µg/mL; MIC (PMI UFR129, alone): >32 µg/mL; MIC (PMI UFR130, alone): >32 µg/mL; MIC (PMI UFR237, alone): >32 µg/mL
CO/N=C(\C(=O)N[C@@H]1C(=O)N2C(C(=O)O)=C(COC(N)=O)CS[C@H]12)c1ccco1 [FUR, Cefuroxime]	4 µg/mL	1 µg/mL	2 µg/mL	1 µg/mL	1 µg/mL	1 µg/mL	1 µg/mL	1 µg/mL	1 µg/mL	4 µg/mL	4 µg/mL	4 µg/mL	16 µg/mL	> 256 µg/mL	> 256 µg/mL	> 256 µg/mL	> 256 µg/mL	> 256 µg/mL	> 256 µg/mL	8 µg/mL	MIC (Proteus mirabilis, strain PMI UFR126 (TEM-2, PER-1), ATB alone, read-out: MIC): > 256 µg/mL; MIC (Proteus mirabilis, strain PMI UFR127 (VEB-1), ATB alone, read-out: MIC): > 256 µg/mL; MIC (Proteus mirabilis, strain PMI UFR129 (TEM-1, VEB-6), ATB alone, read-out: MIC): > 256 µg/mL; MIC (Proteus mirabilis, strain PMI UFR237 (VEB-6), ATB alone, read-out: MIC): > 256 µg/mL
COCC1=C(C(=O)O)N2C(=O)[C@@H](NC(=O)/C(=N\OC)c3csc(N)n3)[C@H]2SC1 [POD, Cefpodoxime]	1 µg/mL	<=0.25 μg/mL	<=0.25 μg/mL	<=0.25 μg/mL	<=0.25 μg/mL	<=0.25 μg/mL	<=0.25 μg/mL	<=0.25 μg/mL	<=0.25 μg/mL	<=0.25 μg/mL	0.5 µg/mL	<=0.25 μg/mL	–	–	–	–	–	–	–	–	–
